According to patent publication US11224565B2, “N-acyldipeptide derivatives and their uses” (NeoStrata Company, Inc., priority 2011, dated 2022):
Peptide text beside a SMILES is read from it.

What was measured:
Format in all cases: in vivo, human
Conditions in all cases: efficacy grade
Disturbed keratinization = experiment: Summary of test results in volunteer subjects: disturbed keratinization
Description: (§1) In one embodiment, a composition for topical application to test its therapeutic effect was formulated by dissolving a bioactive dipeptide derivative of the present invention in a solution prepared from 40 parts water, 40 parts ethanol and 20 parts propylene glycol by volume (WEP442). In another embodiment, a composition was formulated by dissolving a bioactive dipeptide derivative of the present invention in a non-aqueous solution prepared from 80 parts ethanol and 20 parts propylene glycol by volume (EP82). In yet another embodiment, a composition was formulated first by dissolving a bioactive dipeptide derivative of the present invention in a solution prepared from 80 parts water and 20 parts propylene glycol by volume (WP82), and the solution thus prepared was mixed with an oil-in-water emulsion or cream. In another embodiment, the volunteer subject topically applied the test compositions containing N-acyldipeptide derivatives of the present invention on involved skin or lesions once or twice daily for several weeks or until the involved lesions completely cleared and clinically changed to normal skin. As a control study, the subject also topically applied a vehicle control composition on the involved skin or lesions twice daily for the same period. In yet another embodiment, the volunteer subject topically applied once or twice daily the test compositions containing N-acyldipeptide derivatives of the present invention on the skin site above arthritic joints or painful muscles to provide therapeutic effects for the systemic disorders via topical administration. Some test results are summarized as follows. DK: Disturbed keratinization

[1] = test system: Aging related changes of skin, nail and hair; experiment: Summary of test results in volunteer subjects: aging related changes
Description: as §1, with “AG: Aging related changes of skin, nail and hair” for “DK: Disturbed keratinization”

[2] = test system: Deranged immune disorders and inflammation; experiment: Summary of test results in volunteer subjects: deranged immune disorders and inflammation
Description: as §1, with “DI: Deranged immune disorders and inflammation” for “DK: Disturbed keratinization”

Nerve disorders = experiment: Summary of test results in volunteer subjects: nerve disorders
Description: as §1, with “ND: Nerve disorders” for “DK: Disturbed keratinization”

SMILES | DK (Disturbed keratinization) | AG [1] | DI [2] | ND (Nerve disorders)
CC(=O)Nc1ccccc1C(=O)NCC(N)=O [N-Ac-Abz-Gly-NH2] | 2+ (2+: 50% Efficacy) | 2+ (2+: 50% Efficacy) | 3+ (3+: 75% Efficacy) | 3+ (3+: 75% Efficacy)
CC(=O)NCCCC(=O)NCC(N)=O [N-Ac-Gaba-Gly-NH2] | 2+ (2+: 50% Efficacy) | 2+ (2+: 50% Efficacy) | 2+ (2+: 50% Efficacy) | 2+ (2+: 50% Efficacy)
CC(=O)NCC(=O)NCC(N)=O [N-Ac-Gly-Gly-NH2] | 2+ (2+: 50% Efficacy) | 2+ (2+: 50% Efficacy) | 2+ (2+: 50% Efficacy) | 2+ (2+: 50% Efficacy)
CC(=O)NCC(=O)N1CCC[C@H]1C(N)=O [N-Ac-Gly-L-Pro-NH2] (Ac-Gly-Pro-NH2) | 2+ (2+: 50% Efficacy) | 2+ (2+: 50% Efficacy) | 2+ (2+: 50% Efficacy) | 2+ (2+: 50% Efficacy)
CC[C@H](C)[C@H](NC(=O)[C@H](C)NC(C)=O)C(N)=O [N-Ac-L-Ala-L-Ile-NH2] (Ac-Ala-Ile-NH2) | 2+ (2+: 50% Efficacy) | 2+ (2+: 50% Efficacy) | 3+ (3+: 75% Efficacy) | 3+ (3+: 75% Efficacy)
CC(=O)N[C@@H](CC(N)=O)C(=O)NCC(N)=O [N-Ac-L-Asn-Gly-NH2] (Ac-Asn-Gly-NH2) | 2+ (2+: 50% Efficacy) | 2+ (2+: 50% Efficacy) | 2+ (2+: 50% Efficacy) | 2+ (2+: 50% Efficacy)
CC(=O)N[C@@H](CS)C(=O)NCC(N)=O [N-Ac-L-Cys-Gly-NH2] | 2+ (2+: 50% Efficacy) | 2+ (2+: 50% Efficacy) | 2+ (2+: 50% Efficacy) | 2+ (2+: 50% Efficacy)
CC(=O)N[C@@H](CS)C(=O)N[C@@H](CS)C(=O)O [N-Ac-L-Cys-L-Cys-OH] (Ac-Cys-Cys-OH) | 2+ (2+: 50% Efficacy) | 3+ (3+: 75% Efficacy) | 2+ (2+: 50% Efficacy) | 2+ (2+: 50% Efficacy)
CC(=O)N[C@@H](CCC(N)=O)C(=O)NCC(N)=O [N-Ac-L-Gln-Gly-NH2] (Ac-Gln-Gly-NH2) | 2+ (2+: 50% Efficacy) | 2+ (2+: 50% Efficacy) | 2+ (2+: 50% Efficacy) | 2+ (2+: 50% Efficacy)
CC(=O)N[C@@H](Cc1c[nH]cn1)C(=O)NCC(N)=O [N-Ac-L-His-Gly-NH2] (Ac-His-Gly-NH2) | 2+ (2+: 50% Efficacy) | 2+ (2+: 50% Efficacy) | 2+ (2+: 50% Efficacy) | 2+ (2+: 50% Efficacy)
CC[C@H](C)[C@H](NC(C)=O)C(=O)NCC(N)=O [N-Ac-L-Ile-Gly-NH2] (Ac-Ile-Gly-NH2) | 3+ (3+: 75% Efficacy) | 3+ (3+: 75% Efficacy) | 4+ (4+: 95-100% Efficacy) | 4+ (4+: 95-100% Efficacy)
CC[C@H](C)[C@H](NC(C)=O)C(=O)NCC(=O)O [N-Ac-L-Ile-Gly-OH] (Ac-Ile-Gly-OH) | 2+ (2+: 50% Efficacy) | 2+ (2+: 50% Efficacy) | 3+ (3+: 75% Efficacy) | 4+ (4+: 95-100% Efficacy)
CC[C@H](C)[C@H](NC(C)=O)C(=O)N[C@@H](C)C(N)=O [N-Ac-L-Ile-L-Ala-NH2] (Ac-Ile-Ala-NH2) | 2+ (2+: 50% Efficacy) | 2+ (2+: 50% Efficacy) | 4+ (4+: 95-100% Efficacy) | 4+ (4+: 95-100% Efficacy)
CC[C@H](C)[C@H](NC(C)=O)C(=O)N[C@@H](C)C(=O)O [N-Ac-L-Ile-L-Ala-OH] (Ac-Ile-Ala-OH) | 2+ (2+: 50% Efficacy) | 2+ (2+: 50% Efficacy) | 2+ (2+: 50% Efficacy) | 2+ (2+: 50% Efficacy)
CC[C@H](C)[C@H](NC(=O)[C@@H](NC(C)=O)[C@@H](C)CC)C(N)=O [N-Ac-L-Ile-L-Ile-NH2] (Ac-Ile-Ile-NH2) | 3+ (3+: 75% Efficacy) | 2+ (2+: 50% Efficacy) | 3+ (3+: 75% Efficacy) | 4+ (4+: 95-100% Efficacy)
